Laboratory results published in PMC8286840, “Identifying SARS-CoV-2 antiviral compounds by screening for small molecule inhibitors of Nsp3 papain-like protease” (Biochemical Journal, 2021).
Structures can show the parent of a compound that is named as a salt. Where two headings read alike, the source gives them in different places.

How the values were obtained:
[1] = molecular target: T1, SARS-CoV-2 PLpro (nsp3 1564–1878) (Severe acute respiratory syndrome coronavirus 2, UniProt P0DTD1); assay: biochemical; design: FRET-quenched peptide (Pro3) cleavage by PLpro, 10 min pre-incubation, slope over 20 min, normalised to no-compound control; conditions: low concentration screen, read-out: % of control remaining
[2] = molecular target: T1, SARS-CoV-2 PLpro (nsp3 1564–1878); assay: biochemical; design: FRET-quenched peptide (Pro3) cleavage by PLpro, 10 min pre-incubation, slope over 20 min, normalised to no-compound control; conditions: high concentration screen, read-out: % of control remaining

CC(C)C[C@H](NC(=O)[C@H](CCc1ccccc1)NC(=O)CN1CCOCC1)C(=O)N[C@@H](Cc1ccccc1)C(=O)N[C@@H](CC(C)C)C(=O)[C@@]1(C)CO1 [Carfilzomib (PR-171)]
remaining activity at 1.25 µM ([1]; Well no.=5173): 103%
remaining activity at 3.75 µM ([2]; Well no.=5173): 97.1%

O=S(=O)(NCCNC/C=C/c1ccc(Br)cc1)c1cccc2cnccc12 [H-89, Dihydrochloride]
remaining activity at 1.25 µM ([1]; Well no.=2610): 88.8%
remaining activity at 3.75 µM ([2]; Well no.=2610): 86.3%

NCC(=O)N[C@@H](CCCN=C(N)N)C(=O)NCC(=O)N[C@@H](CC(=O)O)C(=O)N[C@@H](CO)C(=O)N1CCC[C@H]1C(=O)O [GRGDSP (TFA)]
remaining activity at 1.25 µM ([1]; Well no.=7558): 102%
remaining activity at 3.75 µM ([2]; Well no.=7558): 109%

CCCCCC/C=C/C=C\CCCCCCCC(=O)O [(9Z,11E)-Octadecadienoic acid]
remaining activity at 1.25 µM ([1]; Well no.=4354): 106%
remaining activity at 3.75 µM ([2]; Well no.=4354): 106%

O=C(O)CCC/C=C\C[C@@H]1[C@@H](/C=C/[C@H](O)C2Cc3ccccc3C2)[C@@H](F)C[C@@H]1O [AL-8810]
remaining activity at 1.25 µM ([1]; Well no.=205): 100%
remaining activity at 3.75 µM ([2]; Well no.=205): 104%

COc1ccc2c(c1)c(CC(=O)O)c(C)n2Cc1ccc(Cl)cc1 [1-(4-Chlorobenzyl)-5-methoxy-2-methylindole-3-acetic acid]
remaining activity at 1.25 µM ([1]; Well no.=379): 99.8%
remaining activity at 3.75 µM ([2]; Well no.=379): 99.4%

CC(C)C[C@@H](C(=O)O)c1cc(-c2ccc(C(F)(F)F)cc2)cc(-c2ccc(C(F)(F)F)cc2)c1 [(R)-2-(4,4''-bis(trifluoromethyl)-[1,1':3',1''-terphenyl]-5'-yl)-4-methylpentanoic acid]
remaining activity at 1.25 µM ([1]; Well no.=5455): 99.6%
remaining activity at 3.75 µM ([2]; Well no.=5455): 106%

COc1cc(/C=C/c2ccccc2)oc(=O)c1 [5,6-Dehydrokawain]
remaining activity at 1.25 µM ([1]; Well no.=3559): 105%
remaining activity at 3.75 µM ([2]; Well no.=3559): 103%

N=C(N)c1ccc(OCCCCCOc2ccc(C(=N)N)cc2)cc1 [Pentamidine isethionate]
remaining activity at 1.25 µM ([1]; Well no.=996): 101%
remaining activity at 3.75 µM ([2]; Well no.=996): 101%

CC(C)S(=O)(=O)c1ccc2nccc(Nc3ccc4scnc4c3)c2c1 [GSK-872]
remaining activity at 1.25 µM ([1]; Well no.=6584): 96.3%
remaining activity at 3.75 µM ([2]; Well no.=6584): 108%

COc1ccccc1N1CCN(CCCCNC(=O)c2ccc3ccccc3c2)CC1 [BP 897]
remaining activity at 1.25 µM ([1]; Well no.=35): 95.8%
remaining activity at 3.75 µM ([2]; Well no.=35): 93.4%

Cc1c(N)nc([C@H](CC(N)=O)NC[C@H](N)C(N)=O)nc1C(=O)N[C@H](C(=O)N[C@H](C)[C@@H](O)[C@H](C)C(=O)N[C@H](C(=O)NCCc1nc(-c2nc(C(=O)NCCC[S+](C)C)cs2)cs1)[C@@H](C)O)[C@@H](O[C@@H]1O[C@@H](CO)[C@@H](O)[C@H](O)[C@@H]1O[C@H]1O[C@H](CO)[C@@H](O)[C@H](OC(N)=O)[C@@H]1O)c1cnc[nH]1 [Bleomycin sulfate]
remaining activity at 1.25 µM ([1]; Well no.=3558): 107%
remaining activity at 3.75 µM ([2]; Well no.=3558): 107%

COc1cc(Cc2cnc(N)nc2N)cc(OC)c1OC [Trimethoprim]
remaining activity at 1.25 µM ([1]; Well no.=1516): 96%
remaining activity at 1.25 µM ([1]; Well no.=2006): 99.3%
remaining activity at 3.75 µM ([2]; Well no.=1516): 94.5%
remaining activity at 3.75 µM ([2]; Well no.=2006): 97.8%

CCc1c(C(=O)OC)ncc2[nH]c3cc(OC)c(OC)cc3c12 [Methyl 6,7-dimethoxy-4-ethyl-beta-carboline-3-carboxylate]
remaining activity at 1.25 µM ([1]; Well no.=703): 97.5%
remaining activity at 3.75 µM ([2]; Well no.=703): 95.4%

c1cc(-c2sc(-c3ccncc3)c(-c3ccncc3)c2-c2ccncc2)ccn1 [GANT58]
remaining activity at 1.25 µM ([1]; Well no.=5874): 94.6%
remaining activity at 3.75 µM ([2]; Well no.=5874): 86.5%

NC(N)=NCc1cccc(I)c1 [m -Iodobenzylguanidine hemisulfate salt]
remaining activity at 1.25 µM ([1]; Well no.=6075): 99.1%
remaining activity at 3.75 µM ([2]; Well no.=6075): 97.8%

O=C(O)c1ccccc1Nc1cccc(C(F)(F)F)c1 [Flufenamic acid]
remaining activity at 1.25 µM ([1]; Well no.=1639): 104%
remaining activity at 3.75 µM ([2]; Well no.=1639): 105%

CC(C)(C)NCC(O)COc1cccc2c1CCC(=O)N2 (centres unmarked) [Carteolol (hydrochloride)]
remaining activity at 1.25 µM ([1]; Well no.=7623): 101%
remaining activity at 3.75 µM ([2]; Well no.=7623): 97.2%

O=C1NC(=O)c2c1c1c3ccccc3[nH]c1c1[nH]c3ccccc3c21 [Arcyriaflavin A - 12,13-Dihydro-5H-indolo[2,3-a]pyrrolo[3,4-c]carbazole-5,7(6H)-dione]
remaining activity at 1.25 µM ([1]; Well no.=2532): 102%
remaining activity at 3.75 µM ([2]; Well no.=2532): 100%

NC(=O)C(c1ccccc1)(c1ccccc1)[C@@H]1CCN(CCc2ccc3c(c2)CCO3)C1 [Darifenacin HBr]
remaining activity at 1.25 µM ([1]; Well no.=5361): 104%
remaining activity at 3.75 µM ([2]; Well no.=5361): 97.1%

CCc1cnn2c(NCc3ccc[n+]([O-])c3)cc(N3CCCC[C@H]3CCO)nc12 [Dinaciclib (SCH727965)]
remaining activity at 1.25 µM ([1]; Well no.=5081): 99.7%
remaining activity at 3.75 µM ([2]; Well no.=5081): 105%

CCN(CCCc1ccccc1)CCCc1ccccc1 [Alverine Citrate]
remaining activity at 1.25 µM ([1]; Well no.=5277): 91.4%
remaining activity at 3.75 µM ([2]; Well no.=5277): 91.3%

CN1CCCCC1Cn1cc(C(=O)c2cc([N+](=O)[O-])ccc2I)c2ccccc21 (centres unmarked) [AM-1241]
remaining activity at 1.25 µM ([1]; Well no.=5289): 101%
remaining activity at 3.75 µM ([2]; Well no.=5289): 99%

CC[N+](CC)(CC)CCOc1ccc(/C=C/c2ccccc2)cc1 [MG 624]
remaining activity at 1.25 µM ([1]; Well no.=972): 100%
remaining activity at 3.75 µM ([2]; Well no.=972): 101%

O=C(c1cc(S(=O)(=O)Nc2ccccc2F)c(F)cc1Cl)N1CCN2CCC[C@@H]2C1 [ABT-639]
remaining activity at 1.25 µM ([1]; Well no.=7880): 94.2%
remaining activity at 3.75 µM ([2]; Well no.=7880): 95.4%

CCCCCCCCCC(=O)O [Decanoic acid]
remaining activity at 1.25 µM ([1]; Well no.=4540): 93.6%
remaining activity at 1.25 µM ([1]; Well no.=6973): 105%
remaining activity at 3.75 µM ([2]; Well no.=4540): 95.8%
remaining activity at 3.75 µM ([2]; Well no.=6973): 107%

CC[C@@]1(O)C[C@H](O[C@H]2C[C@H](N(C)C)[C@H](O[C@H]3C[C@H](O)[C@H](O[C@H]4CCC(=O)[C@H](C)O4)[C@H](C)O3)[C@H](C)O2)c2c(cc3c(c2O)C(=O)c2c(O)cccc2C3=O)[C@H]1C(=O)OC [Aclarubicin]
remaining activity at 1.25 µM ([1]; Well no.=1573): 101%
remaining activity at 3.75 µM ([2]; Well no.=1573): 96.4%

CC(C)CCn1c(CN2CCN(C(=O)C3CC3)CC2)nc2c1c(=O)n(C)c(=O)n2C [NCT-501]
remaining activity at 1.25 µM ([1]; Well no.=8532): 105%
remaining activity at 3.75 µM ([2]; Well no.=8532): 98.9%

O=C(O)CCC[C@H](O)\C=C/C=C/C=C/[C@H](O)C/C=C\CCCCCO [20-Hydroxy-leukotriene B4]
remaining activity at 1.25 µM ([1]; Well no.=4425): 101%
remaining activity at 3.75 µM ([2]; Well no.=4425): 103%

COc1c(O)cc2oc(-c3ccc(O)cc3)cc(=O)c2c1O [5,7-dihydroxy-2-(4-hydroxyphenyl)-6-methoxy-4H-chromen-4-one]
remaining activity at 1.25 µM ([1]; Well no.=5542): 101%
remaining activity at 3.75 µM ([2]; Well no.=5542): 102%

CC1(C)CC(NC(=O)C(=O)Nc2ccc(Cl)cc2)CC(C)(C)N1 [N~1~-(4-chlorophenyl)-N~2~-(2,2,6,6-tetramethyl-4-piperidinyl)ethanediamide]
remaining activity at 1.25 µM ([1]; Well no.=6039): 97.6%
remaining activity at 3.75 µM ([2]; Well no.=6039): 101%

CC[N+](CC)(CC)CC [Tetraethylammonium chloride]
remaining activity at 1.25 µM ([1]; Well no.=1475): 93.2%
remaining activity at 3.75 µM ([2]; Well no.=1475): 89%
